Assay [1] deals with OT-1 transgenic splenocytes. Nature of the assay: In vitro stimulation of OT-1 splenocytes with peptide antigen in the presence of TLR agonists, surface markers by flow cytometry. Format: cell-based, mice. The following applies: for 4-1BB / BTLA / CD160 / CD244.2 / LAG3 / PD-1 / VISTA: OT-1 splenocytes, high affinity antigen plus TLR agonist, versus antigen alone; for T cell activation measured by 4-1BB / PD-1 expression on activated T cells / levels of tested checkpoint markers (BTLA, VISTA, CD160, CD244.2): in words; for T cell activation measured by 4-1BB: SIINFEKL plus TLR agonist; for PD-1 expression on activated T cells: SIINFEKL plus TLR agonist versus antigen alone, up to 4 days; for levels of tested checkpoint markers (BTLA, VISTA, CD160, CD244.2): high affinity antigen plus TLR agonist versus no TLR agonist. Further details: key to 4-1BB / PD-1 / LAG3 / CD160 / CD244.2 / BTLA / VISTA: “+” means increase; “−” means decrease; “=” means no change; “=/+” or “=/−” means the change is there but not significant; “=/+” or “=/−” means the change is there but not significant. On the procedure:
T cell activation was measured by the levels of marker 4-1BB (a/k/a CD137, a member of the TNF receptor superfamily). The level of PD-1 expression was also assessed in these cells (FIG. 1B).
There was no difference in LAG3 expression between the control cells and cells treated with any of the assayed TLR agonists.
OT-1 transgenic splenocytes were treated with high affinity antigen in combination with Pam3CSK4 (TLR1 and 2 agonist), Gardiquimod (TLR7 agonist) or no TLR agonist and the levels of different checkpoint markers or T cell stimulation (measured by 4-1BB, FIG. 5) were assayed. The checkpoint markers BTLA (FIG. 6), VISTA (FIG. 7), CD160 (FIG. 8) and CD244.2 (FIG. 9) were assayed.
TLR stimulation at the time of T-cell activation in vitro affects expression of PD-1. Given that CpG-rich DNA is a TLR9 agonist and Lm is a TLR2 agonist, we questioned whether TLR stimulation with different ligands could similarly affect expression of different T-cell checkpoint inhibitors. […] OT-1 splenocytes were stimulated in vitro with peptides of different affinity for MHC class I (high-affinity SIINFEKL peptide (SEQ ID NO:1, OVA), moderate-affinity SIINTEKL peptide (SEQ ID NO:2, FT), or low-affinity SIINFEKP peptide (SEQ ID NO:7, LP)), alone or in the presence of different TLR ligands (TLR 1/2 (Pam3CSK4), TLR 3 (Poly I:C), TLR 4 (MPLAs), TLR 7 (Gardiquimod), TLR 7/8 (R848), or TLR 9 (ODN1826)). […] Similarly, LAG-3 expression increased by day 3, but was not affected by the presence of different TLR ligands. […] This reduction in PD-1 expression was observed most with the high-affinity SIINFEKL (SEQ ID NO:1) epitope, but also observed following activation with lower affinity epitopes. Given these findings, we evaluated expression of multiple other T-cell checkpoint molecules following T-cell activation in the presence of TLR ligands. […] Cytotoxic T-lymphocyte-associated protein 4 (CTLA-4) expression, however, was increased in the presence of TLR1/2 agonist. Similar results were found activating OT-1 cells with the lower affinity FT (SIINTEKL peptide (SEQ ID NO:2)), LP (SIINFEKP peptide (SEQ ID NO:7), or LY (SIINFEKY, SEQ ID NO:8) epitopes (FIG. 19).
In vitro T-cell stimulation: Spleens were collected from OT-1 mice, processed through a mesh screen, and splenocytes were isolated by centrifugation after red blood cell osmotic lysis with ammonium chloride/[…] lysis buffer (0.15 M NH4Cl, 10 mM KHCO3, 0.1 mM EDTA). Splenocytes were cultured at 2×10^6/mL in RPMI 1640 medium supplemented with L-glutamine, 10% fetal calf serum (FCS), 200 U/mL penicillin/streptomycin, 1% sodium pyruvate, 1% HEPES, 50 μM β-MeOH, and 2 μg/mL of the designated peptide. TLR agonists were all purchased from InvivoGen (San Diego, CA) and added one hour before peptides at the following optimal concentrations based on preliminary studies and previously reported results: 300 ng/ml Pam3CSK4, 10 μg/mL Poly(I:C) HMW, 10 μg/ml MPLAs, 3 μg/ml Gardiquimod, 10 μg/ml R848, 5 μM ODN 1826. At the time points indicated, cells were stained, fixed for 15 min at 4° C. in cytofix (BD Biosciences (BD), San Jose, CA; 554655), and frozen in FCS+10% DMSO. After all time points were collected, cells from all times were thawed, rinsed and resuspended in PBS+3% FCS+1 mM EDTA and analyzed by flow cytometry. Cells were stained for 30 min at 4° C. in a 1:4 dilution of brilliant stain buffer (BD 563794) in PBS+3% FCS+1 mM EDTA. In order to assess co-stimulation, blocking antibodies for CD80 (0.6 μg/mL), CD86 (0.25 μg/mL) or OX40L (0.6 μg/mL) were added 1 hour prior to antigen.
In general terms: A flow cytometer gives signals particle by particle.

Assay [2] concerns SSX2-expressing sarcoma cells. Nature of the assay: SSX2 tumor treatment study: DNA vaccine with or without TLR agonist. The following applies: for anti-tumor efficacy / tumor growth suppression in combination with DNA vaccine: TLR agonist with DNA vaccine versus vaccine alone; for effect on tumor growth of TLR agonist alone (with vector DNA): with control vector pTVG4. Format: in vivo, mice. On the procedure: Mice expressing human HLA-A2 were injected subcutaneously with SSX2-expressing sarcoma cells. Starting one day after inoculation, and every 7 days thereafter, mice were vaccinated with a DNA vaccine encoding SSX2, an optimized version of SSX2 with increased affinity for HLA-A2 (pTVG-SSX2 opt) or negative control vector pTVG4. All were done with or without TLR1/2 agonist or TLR7 agonist mixed with the DNA. A solution of DNA and a solution of TLR agonist in PBS were made and mixed together prior to administration. Note that TLR stimulation via a TLR agonist improves the efficacy of pTVG-SSX2 opt to a greater extent than pTVG-SSX2.
Using this model, HLA-A2-expressing transgenic mice were implanted with synovial sarcoma, X breakpoint 2 (SSX-2)-expressing tumor cells. […], mice were then immunized weekly with control vector (pTVG4), DNA encoding native SSX2 (pTVG-SSX2), or DNA encoding high affinity HLA-A2 epitopes (pTVG-SSX2 opt) in the presence or absence of Pam3CSK4 (TLR1/2) or Gardiquimod (TLR7) agonist.
SSX2 tumor treatment studies: 6- to 8-week old HHDII-DR1 mice were inoculated with 10^5 A2/Sarc-SSX2 cells administered subcutaneously, and then immunized intradermally with DNA vaccines weekly beginning one day after tumor implantation, as previously described (42). TLR agonists or vehicle were co-administered with the vaccine intradermally, and tumor volumes were measured over time using calipers, as described above.

Entries after “also recorded” stand apart in the source; their conditions may differ.

For `CCNCc1nc2c(N)nc3ccccc3c2n1CC(C)(C)O` [Gardiquimod], in assay [1], the 4-1BB result is on record as “=”, the BTLA entry was “=/−”, the CD160 result is on record as “−” and the CD244.2 entry was “=/−”. For the same compound, in assay [1], the LAG3 entry was “=”, the PD-1 result is given as “−”, the VISTA result was “=” and the “T cell activation measured by 4-1BB” value is listed as “activated”. Further, in assay [1], the “PD-1 expression on activated T cells” value is listed as “expressed low levels of PD-1; also recorded: significantly reduced” and the “levels of tested checkpoint markers (BTLA, VISTA, CD160, CD244.2)” value is on record as “did not affect”. Besides, in assay [2], the “anti-tumor efficacy / tumor growth suppression in combination with DNA vaccine” value is “significantly increased; also recorded: improved the tumor growth suppression” and the “effect on tumor growth of TLR agonist alone (with vector DNA)” value is listed as “modest effects”.

Regarding Monophosphoryl Lipid A [MPLAs], in assay [1], the 4-1BB result was “=”, the LAG3 result is given as “=”, the PD-1 entry is given as “=” and the “PD-1 expression on activated T cells” value is listed as “did not significantly reduce”. In addition, the “PD-1 expression on activated T cells” value in assay [1] (listed as TLR4) is “did not lead to PD-1 downregulation”.

With Pam3CSK4, the CTLA-4 expression result in assay [1] (OT-1 T cells activated with SIINFEKL in the presence of TLR ligand) was “increased”. In addition, in assay [1], the 4-1BB result was “=”, the BTLA entry is reported as “=/−”, the CD160 entry was “−” and the CD244.2 result is “=”. Also, in assay [1], the LAG3 entry was “=”, the PD-1 result is recorded as “−”, the VISTA entry was “−” and the “T cell activation measured by 4-1BB” value is “activated”. In assay [1], the “PD-1 expression on activated T cells” value is on record as “expressed low levels of PD-1; also recorded: significantly reduced” and the “levels of tested checkpoint markers (BTLA, VISTA, CD160, CD244.2)” value was “did not affect”. Also, in assay [2], the “anti-tumor efficacy / tumor growth suppression in combination with DNA vaccine” value is “significantly increased; also recorded: improved the tumor growth suppression” and the “effect on tumor growth of TLR agonist alone (with vector DNA)” value was “modest effects”.

For the compound Poly(I:C) [PolyI:C], in assay [1], the 4-1BB entry was “=”, the LAG3 result is reported as “=/+”, the PD-1 entry is “=/−” and the “PD-1 expression on activated T cells” value is reported as “did not significantly reduce”. Also, in assay [1] (listed as TLR3), the “PD-1 expression on activated T cells” value is listed as “did not lead to decreased PD-1 expression”.

Values taken from patent US20240390487A1, “TLR AGONISTS FOR REDUCING ACTIVATION-INDUCED PD-1 EXPRESSION ON T CELLS AND METHODS OF USE” (WISCONSIN ALUMNI RESEARCH FOUNDATION, priority 2016, published 2024).
